Test results as given in patent US20250090507A1, “Methods of Treating Cancer With a B-RAF Inhibitor” (MapKure, LLC, priority 2022, published 2025).

Legend:
circulating tumor DNA = test: Circulating tumor DNA variant allele frequency in melanoma pts; format: in vivo, human; settings: ctDNA, subset of melanoma pts
Excerpt: Peripheral blood samples were collected at specified timepoints as described in the schedule of assessments to be used for the longitudinal evaluation ctDNA by molecular (NGS) methodologies as pharmacodynamic biomarkers associated with response or resistance.

[1] = system: B-RAF/MEK inhibitor-resistant tumors; test: Preclinical activity towards resistant tumors; settings: preclinical studies
[2] = pH value of the solid form; format: physicochemical; settings: Form I
pKa = format: physicochemical
Log P = format: physicochemical

Question: With `O=C1CCc2c(Oc3ccc4c(c3)[C@H]3[C@H](NC(=O)Nc5cc(F)c(F)cc5F)[C@H]3O4)ccnc2N1` [Compound A, 1-((1S,1aS,6bS)-5-((7-oxo-5,6,7,8-tetrahydro-1,8-naphthyridin-4-yl)oxy)-1a,6b-dihydro-1H-cyclopropa[b]benzofuran-1-yl)-3-(2,4,5-trifluorophenyl)urea] as the molecule, how does the “maximum reduction of VAF, range” value (circulating tumor DNA) read?
Answer: 98.7-99.9%

Question: And the “maximum reduction of variant allele frequency (VAF) of detected mutations” value (circulating tumor DNA; across evaluated subjects)?
Answer: 99.3%

Question: What about the “Activity towards resistant tumors” value [1] of the same molecule?
Answer: active

Question: And the pH value [2]?
Answer: 5.76

Question: And the pKa (pKa)?
Answer: 5.28

Question: And the logP (Log P)?
Answer: > 4.46
